The record followed here is paper PMC11320734 (ACS Pharmacology & Translational Science, 2024).

Data set [1] concerns 80 additional receptors. The data set can be described thus: CEREP off-target binding screen.
Data set [2] is described as follows: Octanol/water distribution coefficient (logD), CAMDIS assay. The data set is classed as physicochemical. How it is done:
For the determination of the octanol/water distribution coefficient (logD), the carrier-mediated distribution system (CAMDIS)-assay was used as described elsewhere.[38] Kinetic and thermodynamic solubilities were assessed using the lyophilization solubility assay (LYSA) and thermodynamic solubility assay (THESA), respectively. For the LYSA, the solubility of RNB- 61 in phosphate buffer at pH 6.5 from an evaporated 10 mM DMSO compound stock solution was measured. Two aliquots of the test compounds were dried and dissolved in phosphate buffer at pH 6.5. The solutions were then filtered and diluted (3 different dilution levels for each compound) before high throughput mass spectrometry (MS) analysis was performed in an Agilent RapidFire system. Each test compound was quantified using a 6-point calibration curve prepared with the same DMSO starting solution. For THESA, RNB-61 (8.6 mg per mL solvent/vehicle) was stirred in HPLC vials (9 × 12 × 32 mm, Waters) at 350 rpm for 15 h. The presence of solid particles was determined by microscopic analysis of 10 μL samples. If the active pharmacological ingredient (API) was completely dissolved, more solid API was added before stirring for another 15 h. This step was repeated for up to 96 h or until residual solid particles could be detected. Samples (0.5 mL) were transferred to Eppendorf Ultrafree filter tubes (Filter: PVDF 0.22 μm) and centrifuged at 14,500 rpm for 10 min. The filtrates were diluted in ethanol and analyzed by ultra-performance liquid chromatography (UPLC). Measurements were repeated in 0.05 M aqueous phosphate buffer and in fasted (FaSSIF) and fed (FeSSIF) simulated gastrointestinal fluids.

Data set [3] can be described thus: pKa. The format is physicochemical. The following applies: basic nitrogen N1 of the pyrazole ring.
Data set [4] can be described thus: Parallel artificial membrane permeability (PAMPA) assay. The format is in vitro ADME. The following applies: for Papp: PAMPA, read-out: PAMPA Peff. The method, then: The general permeability of the compound was assessed using the parallel artificial membrane permeability (PAMPA) assay and the permeability-glycoprotein (P-gp) assay was used to specifically test for brain penetration. PAMPA data were generated as previously reported by our group.[44] The P-gp assay, which evaluates the brain penetration of test compounds, was performed as described elsewhere.[45] Briefly, transfected porcine kidney epithelial (LLC-PK1) cells expressing human or mouse P-gp were cultured on 96-well semipermeable filter membrane plates (Millipore, Darmstadt, Germany). Cells formed a polarized monolayer with tight junctions that acted as a barrier between apical and basolateral compartments. P-gp was expressed in the apical-facing membrane of the monolayer (tightness confirmed using Lucifer yellow). To determine the unidirectional permeability (Papp) of RNB-61, samples were added separately to the apical (for A > B Papp) and basolateral (for B > A Papp) sides of the cell monolayer (i.e., donor compartments), and RNB-61 movement into the respective receiver compartments was measured by LC-MS/MS over a 3 h incubation at 37 °C. The effect of P-gp was measured by expressing the efflux ratio of the unidirectional A > B and B > A Papp values. The mean permeability (A > B and B > A Papp) was determined in the absence of P-gp via the addition of the selective P-gp inhibitor, tariquidar.
Background: The PAMPA barrier holds no transporters, so it reflects passive diffusion.

A short description of data set [5]: Fraction unbound in plasma. The format is in vitro ADME. The text has this:
Table 3 Physicochemical and ADMET Properties of RNB-61 | column: 481.556

Molecules are shown by their SMILES. Read-outs that look alike come from different tables or passages of the source.

As usually defined, the logD is lipophilicity at a set pH, counting ionised and neutral species. The term pKa denotes the pH at which an ionisable group is half protonated. Usually fraction unbound stands for the share of the substance not bound to proteins or other matrix. For `Cn1c(C(C)(C)C)cc(=NC(=O)c2cc(C(F)(F)F)ccc2OCC(C)(C)O)n1CC1CCC1` [RNB-61], in data set [1] (10 μM, most receptors, exception Na+ channel site 2), the “binding to 80 additional receptors (significant = ≥50% of probe displacement)” value is “no significant binding”. Also, the “interaction with 80 additional receptor targets (significant = >50% inhibition)” value in data set [1] (up to 1 μM) was “no significant interaction”. The logD in data set [2] (Table 3, read-out: clogP (cell says logD)) came out at 3.34; in data set [2] (octanol/water, read-out: logD), 3.3. For the same molecule, the figures for the pKa in data set [3] and in data set [3] (read-out: pKa) were 7.33 and 7.37, respectively. Moreover, the “PAMPA %Acc” value in data set [4] is 6%. Besides, the “PAMPA %Don” value in data set [4] is reported as 22%. Moreover, the “PAMPA %Mem” value in data set [4] was 72%. In data set [4], the “PAMPA Peff” value was 2.14 × 10^–6 cm s^–1. The Papp turned out to be 2.14 ×10⁻⁶ cm/s in data set [4] (Table 1) and 0.9 ×10⁻⁶ cm/s in data set [4]. In addition, the fraction unbound is 0.019 in data set [5] (human), 0.019 in data set [5] (mouse) and 0.017 in data set [5] (rat).
